ChEMBL document CHEMBL3616451, “Design and synthesis of 11α-substituted bile acid derivatives as potential anti-tuberculosis agents” (Bioorg Med Chem Lett, 2015)
In brackets after ≈: the same amount, converted by molar mass. Activity calls are given as the source filed them. No cut-off for these calls is given here.

Experiments:
[1] = test system: Mycobacterium tuberculosis; assay: Anti-tubercular activity against rifampicin, isoniazid, ethambutol and pyrazinamide-sensitive Mycobacterium tuberculosis H37Ra ATCC 25177 assessed as growth inhibition at 30 ug/ml by XRMA method relative to control; format: functional; details: read-out: GI
[2] = test system: Mycobacterium tuberculosis; assay: Anti-tubercular activity against rifampicin, isoniazid, ethambutol and pyrazinamide-sensitive Mycobacterium tuberculosis H37Ra ATCC 25177 assessed as growth inhibition at 10 ug/ml by XRMA method relative to control; format: functional; details: for inhibition of growth at 10 µg/mL: read-out: GI
[3] = test system: Mycobacterium tuberculosis; assay: Anti-tubercular activity against rifampicin, isoniazid, ethambutol and pyrazinamide-sensitive Mycobacterium tuberculosis H37Ra ATCC 25177 assessed as growth inhibition at 3 ug/ml by XRMA method relative to control; format: functional; details: for inhibition of growth at 3 µg/mL: read-out: GI
Escherichia coli = assay: Antibacterial activity against Escherichia coli […] assessed as growth inhibition at 30 ug/ml relative to control; format: functional; details: read-out: GI
Pseudomonas fluorescens = assay: Antibacterial activity against Pseudomonas fluorescens ATCC 13525 assessed as growth inhibition at 30 ug/ml relative to control; format: functional; details: read-out: GI
Staphylococcus aureus = assay: Antibacterial activity against Staphylococcus aureus ATCC 29213 assessed as growth inhibition at 30 ug/ml relative to control; format: functional
Bacillus subtilis = assay: Antibacterial activity against Bacillus subtilis ATCC 23857 assessed as growth inhibition at 30 ug/ml relative to control; format: functional
[4] = test system: Mycobacterium tuberculosis; assay: Anti-tubercular activity against rifampicin, isoniazid, ethambutol and pyrazinamide-sensitive dormant phage of Mycobacterium tuberculosis H37Ra ATCC 25177 by serial dilution method; format: functional, organism-based
[5] = test system: Mycobacterium tuberculosis; assay: Anti-tubercular activity against rifampicin, isoniazid, ethambutol and pyrazinamide-sensitive active phage of Mycobacterium tuberculosis H37Ra ATCC 25177 by serial dilution method; format: functional, organism-based
[6] = test system: Mycobacterium tuberculosis; assay: Anti-tubercular activity against rifampicin, isoniazid, ethambutol and pyrazinamide-sensitive dormant phage of Mycobacterium tuberculosis H37Ra ATCC 25177 infected in human THP1 cells by neutral red assay; format: functional, organism-based; details: H37Ra ATCC 25177, THP-1
[7] = test system: Mycobacterium tuberculosis; assay: Anti-tubercular activity against rifampicin, isoniazid, ethambutol and pyrazinamide-sensitive active phage of Mycobacterium tuberculosis H37Ra ATCC 25177 infected in human THP1 cells by neutral red assay; format: functional, organism-based; details: H37Ra ATCC 25177, THP-1
[8] = (§1) Cytotoxicity against human THP1 cells after 48 hrs by MTT assay; format: cell-based, THP-1; details: THP-1 cells
THP-1 = assay: as §1; format: cell-based; details: thp-1, 48 h
[9] = Cytotoxicity against human PANC1 cells after 48 hrs by MTT assay; format: cell-based, PANC-1; details: for GI50 at 48 h: PANC-1 cells; for GI90: panc-1, 48 h
[10] = (§2) Cytotoxicity against human A549 cells after 48 hrs by MTT assay; format: cell-based; details: A549 cells
A549 = assay: as §2; format: cell-based; details: a549, 48 h

Question: With `COC(=O)CC[C@@H](C)[C@H]1CC[C@H]2[C@H]3[C@H]([C@H](n4cc(-c5ccc(F)cc5)nn4)C(=O)[C@]12C)[C@@]1(C)CC[C@@H](OC(C)=O)C[C@H]1C[C@H]3OC(C)=O` as the compound, how does the inhibition of growth at 30 µg/mL [1] read?
Answer: 79%

Question: What about the inhibition of growth at 10 µg/mL [2] of the same compound?
Answer: 75%

Question: What about the inhibition of growth at 3 µg/mL [3] of the same compound?
Answer: 71%

Question: And the inhibition of growth at 30 µg/mL (Escherichia coli)?
Answer: 43.8%

Question: What about the inhibition of growth at 30 µg/mL (Pseudomonas fluorescens) of the same compound?
Answer: 23.2%

Question: And the “growth inhibition (GI)” value (Staphylococcus aureus)?
Answer: inactive

Question: What about the inhibition of growth at 30 µg/mL (Bacillus subtilis; read-out: GI) of the same compound?
Answer: 20%

Question: What does the source list for `CO[C@H]1/C=C/O[C@@]2(C)Oc3c(C)c(O)c4c(O)c(c(/C=N/N5CCN(C)CC5)c(O)c4c3C2=O)NC(=O)/C(C)=C\C=C\[C@H](C)[C@H](O)[C@@H](C)[C@@H](O)[C@@H](C)[C@H](OC(C)=O)[C@@H]1C` [RIFAMPIN]?
Answer: IC50 [4]: 0.0014 mg/L (≈ 0.0017 µM); IC90 [4]: 0.043 mg/L (≈ 0.0523 µM); IC50 [5]: 0.0018 mg/L (≈ 0.00219 µM); IC90 [5]: 0.048 mg/L (≈ 0.0583 µM); IC50 [6]: 0.0018 mg/L (≈ 0.00219 µM); IC90 [6]: 0.048 mg/L (≈ 0.0583 µM); IC50 [7]: 0.0021 mg/L (≈ 0.00255 µM); IC90 [7]: 0.051 mg/L (≈ 0.062 µM)

Question: Which inhibition of growth at 30 µg/mL [1] does the source give for `COC(=O)CC[C@@H](C)[C@H]1CC[C@H]2[C@H]3[C@H]([C@H](N=[N+]=[N-])C(=O)[C@]12C)[C@@]1(C)CC[C@@H](OC(C)=O)C[C@H]1C[C@H]3OC(C)=O` here?
Answer: 12%

Question: What about the “growth inhibition (GI)” value [2] of the same compound?
Answer: inactive

Question: And the “growth inhibition (GI)” value [3]?
Answer: inactive

Question: For `COC(=O)CC[C@@H](C)[C@H]1CC[C@H]2[C@H]3[C@H]([C@H](NC(=O)C4CN4)C(=O)[C@]12C)[C@@]1(C)CC[C@@H](OC(C)=O)C[C@H]1C[C@H]3OC(C)=O` (stereo partly specified), which inhibition of growth at 30 µg/mL [1] is on record?
Answer: 14%

Question: What about the inhibition of growth at 10 µg/mL [2] of the same compound?
Answer: 10%

Question: And the “growth inhibition (GI)” value [3]?
Answer: inactive

Question: Which inhibition of growth at 30 µg/mL [1] does the source give for `C[C@H](CCC(=O)O)[C@H]1CC[C@H]2[C@@H]3[C@H](O)C[C@@H]4C[C@H](O)CC[C@]4(C)[C@H]3C[C@H](O)[C@]12C` [CHOLIC ACID] here?
Answer: 53%

Question: And the inhibition of growth at 10 µg/mL [2]?
Answer: 36%

Question: And the “growth inhibition (GI)” value [3]?
Answer: inactive

Question: What does the source list for `CC(=O)O[C@H]1C(=O)[C@@]2(C)[C@H]([C@H](OC(=O)c3ccccc3)[C@]3(O)C[C@H](OC(=O)[C@H](O)[C@@H](NC(=O)c4ccccc4)c4ccccc4)C(C)=C1C3(C)C)[C@]1(OC(C)=O)CO[C@@H]1C[C@@H]2O` [PACLITAXEL]?
Answer: GI50 at 48 h [8]: 0.137 mg/L (≈ 0.161 µM); GI90 (THP-1): 5.814 mg/L (≈ 6.81 µM); GI50 at 48 h [9]: 0.128 mg/L (≈ 0.15 µM); GI90 [9]: 5.715 mg/L (≈ 6.69 µM); GI50 at 48 h [10]: 0.0035 mg/L (≈ 0.0041 µM); GI90 (A549): 0.0706 mg/L (≈ 0.0827 µM)

Question: What does the source list for `COC(=O)CC[C@@H](C)[C@H]1CC[C@H]2[C@H]3[C@H]([C@H](NC(=O)C(CO)NC(=O)OC(C)(C)C)C(=O)[C@]12C)[C@@]1(C)CC[C@@H](OC(C)=O)C[C@H]1C[C@H]3OC(C)=O` (stereo partly specified)?
Answer: inhibition of growth at 30 µg/mL [1]: 91%; inhibition of growth at 10 µg/mL [2]: 73%; inhibition of growth at 3 µg/mL [3]: 68%; IC50 [4]: 6.16 mg/L (≈ 8.71 µM); IC90 [4]: 26.3 mg/L (≈ 37.2 µM); IC50 [5]: 2.7 mg/L (≈ 3.82 µM); IC90 [5]: 28.9 mg/L (≈ 40.8 µM); IC50 [6]: 3.44 mg/L (≈ 4.87 µM); IC90 [6]: 26.3 mg/L (≈ 37.2 µM); IC50 [7]: 3.98 mg/L (≈ 5.63 µM); IC90 [7]: 26.9 mg/L (≈ 38 µM); GI50 at 48 h [8]: 76.2 mg/L (≈ 108 µM); GI90 (THP-1): > 100 mg/L; GI50 at 48 h [9]: > 100 mg/L; GI90 [9]: > 100 mg/L; GI50 at 48 h [10]: > 100 mg/L; GI90 (A549): > 100 mg/L; inhibition of growth at 30 µg/mL (Escherichia coli): 43.2%; inhibition of growth at 30 µg/mL (Pseudomonas fluorescens): 29.9%; inhibition of growth at 30 µg/mL (Staphylococcus aureus; read-out: GI): 11.9%; growth inhibition (GI) (Bacillus subtilis): inactive

Question: What does the source list for `COC(=O)CC[C@@H](C)[C@H]1CC[C@H]2[C@H]3[C@H]([C@H](n4cc(-c5ccccn5)nn4)C(=O)[C@]12C)[C@@]1(C)CC[C@@H](OC(C)=O)C[C@H]1C[C@H]3OC(C)=O`?
Answer: inhibition of growth at 30 µg/mL [1]: 71%; inhibition of growth at 10 µg/mL [2]: 48%; inhibition of growth at 3 µg/mL [3]: 38%; inhibition of growth at 30 µg/mL (Escherichia coli): 32.1%; inhibition of growth at 30 µg/mL (Pseudomonas fluorescens): 47.1%; growth inhibition (GI) (Staphylococcus aureus): inactive; growth inhibition (GI) (Bacillus subtilis): inactive

Question: For `COC(=O)CC[C@@H](C)[C@H]1CC[C@H]2[C@H]3[C@H]([C@H](N)C(=O)[C@]12C)[C@@]1(C)CC[C@@H](OC(C)=O)C[C@H]1C[C@H]3OC(C)=O`, which inhibition of growth at 30 µg/mL [1] is on record?
Answer: < 1%

Question: And the inhibition of growth at 10 µg/mL [2]?
Answer: < 1%

Question: And the “growth inhibition (GI)” value [3]?
Answer: inactive
